Converted amounts (≈) assume the structure as drawn.
Assay: Solubility of active ingredient in water
Assay type: physicochemical
Conditions: 23° C., water at pH 7.6

## NCC(CC(=O)O)c1ccc(Cl)cc1 (stereo not shown) [active ingredient, Baclofen]
  solubility: 4300 µg/mL (≈ 20.1 mM)

— patent US8298581B2, “Matrix compositions for controlled delivery of drug substances” (Egalet A/S, priority 2003, dated 2012)
